Several values for one entry are separate records, joined by “and”; a condition that tells them apart may be missing. Identical values can stand only once. Like-named read-outs stand apart in the source and are kept apart here. Some results are limits rather than exact numbers.

One test deals with MCF-7 cells. Briefly: MCF-7 Cell Proliferation Assay. Format: cell-based. The method, then: MCF-7 Cell Proliferation Assay
This assay was run according to the procedure described by Welshons, et al., (Breast Cancer Res. Treat., 1987, 10(2), 169–75), with minor modification.
Briefly, MCF-7 cells (from Dr. C. Jordan, Northwestern University) were maintained in RPMI 1640 phenol red free medium (Gibco) in 10% FBS (Hyclone), supplemented with bovine insulin and non-essential amino acid (Sigma). The cells were initially treated with 4-hydroxytamoxifen (10^−8 M) and let stand at 37° C. for 24 hours. Following this incubation with tamoxifen, the cells were treated with compounds at various concentrations.
Compounds to be tested in the agonist mode were added to the culture media at varying concentrations. Compounds to be treated in the antagonist mode were prepared similarly, and 10 nM 17β-estradiol was also added to the culture media. The cells were incubated for 24 hours at 37° C. Following this incubation, 0.1 μCi of ^14C-thymidine (56mCi/mmol, Amersham) was added to the culture media and the cells were incubated for an additional 24 hours at 37° C. The cells were then washed twice with Hank's buffered salt solution (HBSS) (Gibco) and counted with a scintillation counter. The increase in the ^14C-thymidine in the compound treated cells relative to the vehicle control cells were reported as percent increase in cell proliferation.
(§1) Representative compound of the present invention were tested according to the procedure described in Examples 14 and 15 above, with results as listed in Table. 7.

In test [1] the test system is Human Endometrial Ishikawa Cells. Briefly: Alkaline Phosphatase Assay in Human Endometrial Ishikawa Cells. Format: cell-based. The settings on record: for EC50: read-out: Ishikawa Agonist EC50; for IC50: read-out: Ishikawa Antagonist IC50. Here is the method:
Alkaline Phosphatase Assay in Human Endometrial Ishikawa Cells
This assay was run according to the procedure described by Albert et a., Cancer Res, […], 50(11), 330-6-10, with minor modification.
Ishikawa cells (from ATCC) were maintained in DMEM/F12 (1:1) phenol red free medium (Gibco) supplemented with 10% calf serum (Hyclone). 24 hours prior to testing, the medium was changed to DMEM/F12 (1:1) phenol red free containing 2% calf serum.
Compounds to be tested in the agonist mode were added to the culture media at varying concentrations. Compounds to be treated in the antagonist mode were prepared similarly, and 10 nM 17β-estradiol was also added to the culture media. The cells were then incubated at 37° C. for 3 days. On the fourth day, the media was remove, 1 volume of 1× Dilution Buffer (Clontech) was added to the well followed by addition of 1 volume of Assay Buffer (Clontech). The cells were then incubated at room temperature for 5 minutes. 1 volume of freshly prepared Chemiluminescence Buffer (1 volume of chemiluminescent substrate (CSPD) in 19 volume Chemiluminescent Enhancer with final concentration of CSPD at 1.25 mM; Sigma Chemical Co.) was added. The cells were incubated at room temperature for 10 minutes and then quantified on a luminometer. The increase of chemiluminescence over vehicle control was used to calculate the increase in alkaline phosphatase activity.
as §1

Test [2] deals with T1, human estrogen receptor α (Homo sapiens, UniProt P03372).
T1 construct: purchased Panvera
T1 sequence (P03372 1-595): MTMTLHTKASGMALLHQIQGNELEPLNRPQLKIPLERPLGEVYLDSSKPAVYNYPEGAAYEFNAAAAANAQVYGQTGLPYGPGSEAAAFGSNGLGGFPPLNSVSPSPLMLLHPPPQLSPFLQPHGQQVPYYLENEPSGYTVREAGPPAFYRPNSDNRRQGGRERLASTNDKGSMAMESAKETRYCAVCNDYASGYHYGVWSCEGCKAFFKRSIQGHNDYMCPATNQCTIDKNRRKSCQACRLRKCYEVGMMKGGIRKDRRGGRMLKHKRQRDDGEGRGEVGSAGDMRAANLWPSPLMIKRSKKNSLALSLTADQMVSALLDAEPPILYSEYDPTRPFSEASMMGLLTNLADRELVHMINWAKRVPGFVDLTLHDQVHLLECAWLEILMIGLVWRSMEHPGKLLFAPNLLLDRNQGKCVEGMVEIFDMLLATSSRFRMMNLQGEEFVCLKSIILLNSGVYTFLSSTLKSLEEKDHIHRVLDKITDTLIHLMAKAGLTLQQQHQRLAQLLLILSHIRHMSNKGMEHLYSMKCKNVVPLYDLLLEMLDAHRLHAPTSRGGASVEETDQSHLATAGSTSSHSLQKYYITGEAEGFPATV
Kind of test: Estrogen Receptor α Flash Plate Assay. The settings on record: displacement of radio-labeled estrogen, FlashPlate; read-out: ERα Binding IC50. Here is the method:
Estrogen Receptor α Flash Plate Assay
This assay monitors binding of radio-labeled estrogen to the estrogen receptor. It is performed on a BioMek 2000 (Beckman). Plates are read in a scintillation counter (Packard TopCount), with decreased counts an indication of binding of a compound to the receptor. The assay was run according to the procedure described by Allan, et al., Anal. Biochem. (1999), 275(2), 243–247.
On day one, 100 μL of Estrogen Screening Buffer (ESB, Panvera) containing 5 mM dithiothreitol (DTT, Panvera), 0.5 μg mouse anti-estrogen receptor monoclonal antibody (SRA-1010, Stressgen) and 50 ng purified human estrogen receptor α (Panvera) were added to each well of a 96 well FlashPlate Plus plate crosslinked with goat anti-mouse antibodies (NEN Life Sciences). The plate was sealed and incubated at 4° C. overnight.
On day two, each well was washed three times with 200 μL PBS, pH 7.2, at room temperature. To each well was then added 98 μL radio-labeled estrogen (0.5 nM, which equals 6 nCi for a 120 Ci/mmol batch, Amersham), diluted in ESB and 5 mM dithiothreitol (DTT). To individual wells were then added 2.5 μL test compound diluted in 30% (v/v) dimethyl sulfoxide/50 mM HEPES, pH 7.5. The wells were mixed three times by aspiration, the plate sealed and incubated at room temperature for one hour. The wells were then counted for 1 min in a TopCount scintillation counter (Packard).
(§2) Representative compound of the present invention were tested according to the procedure described above for binding to the Estrogen Receptor α and Estrogen Receptor β, with results as listed in Table 6.

Another test addresses T2, hER-β (Homo sapiens, UniProt Q92731).
T2 construct: purchased Panvera
Kind of test: Estrogen Receptor β Fluorescence Polarization Assay. The settings on record: displacement of Fluormone ES2, fluorescence polarization; read-out: ERβ Binding IC50.
Text: Estrogen Receptor β Fluorescence Polarization Assay
This assay monitors binding of a fluorescent analog of estrogen (Fluormone ES2, Panvera) to the estrogen receptor. Plates are read in a fluorometer that can be set to polarization mode. A decrease in […] relative to vehicle control is an indication of binding of a compound to the receptor.
It is crucial to avoid introduction of air bubbles into the reaction in each well of the 96 well plate throughout this procedure. (Bubbles on the surface of the reaction disrupt light flow, affecting the polarization reading.) However, it is also crucial to effectively mix the reaction components upon addition to the well.
On ice, a 2× standard mixture of Assay Buffer (Panvera), 10 nM DTT and 40 nM ES2 was prepared. On ice, a 2× reaction mixture of Assay Buffer (Panvera), and 20 nM hER-β (Panvera) and 40 nM ES2 was also prepared.
Dilutions of test compound were prepared in 30% (v/v) dimethyl sulfoxide/50 mM HEPES, pH 7.5. At this point, the dilutions were 40× the final required concentration.
The standard mixture at 50 μL was then added to each well. The reaction mixture at 48 μL was added to all wells. The compound dilution at 2.5 μL was added to the appropriate wells. The reaction mixtures were mixed using a manual pipette, a roll of aluminum foil adhesive cover was placed on the plate and the plate incubated at room temperature for 1 hour.
Each well on the plate was then read in an LjL Analyst with an excitation wavelength of […] and an emission wavelength of 538.
as §2
In general terms: Fluorescence polarisation rises when a labelled molecule tumbles more slowly, as on binding a larger partner.

Setting [3] is: Homo sapiens, MCF7, agonist mode, 14C-thymidine incorporation, read-out: MCF7 Agonist EC50.
Where [4] appears, read: Homo sapiens, MCF7, antagonist mode, 10 nM 17β-estradiol added, 14C-thymidine incorporation, read-out: MCF7 Antagonist IC50.
Where [5] appears, read: Homo sapiens, Ishikawa, 72 h, agonist mode, alkaline phosphatase activity, 3 days.
Where [6] appears, read: Homo sapiens, Ishikawa, 72 h, antagonist mode, 10 nM 17β-estradiol added, alkaline phosphatase activity, 3 days.

T2 sequence (Q92731 whole entry): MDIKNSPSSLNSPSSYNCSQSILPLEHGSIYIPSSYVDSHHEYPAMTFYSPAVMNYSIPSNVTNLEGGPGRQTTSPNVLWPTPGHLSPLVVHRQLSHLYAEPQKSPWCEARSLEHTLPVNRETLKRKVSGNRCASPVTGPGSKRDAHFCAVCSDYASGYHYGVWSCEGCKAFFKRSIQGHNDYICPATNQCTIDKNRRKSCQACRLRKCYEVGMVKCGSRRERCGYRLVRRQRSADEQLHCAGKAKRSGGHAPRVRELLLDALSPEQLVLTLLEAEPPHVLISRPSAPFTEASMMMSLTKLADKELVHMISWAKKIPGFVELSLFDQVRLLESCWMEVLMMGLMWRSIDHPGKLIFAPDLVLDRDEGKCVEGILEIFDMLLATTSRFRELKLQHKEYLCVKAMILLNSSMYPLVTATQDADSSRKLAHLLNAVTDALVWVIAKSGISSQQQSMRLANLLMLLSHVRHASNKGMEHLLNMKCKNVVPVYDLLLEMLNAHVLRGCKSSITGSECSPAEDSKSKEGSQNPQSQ

Usually EC50 stands for the concentration at which the effect is half-maximal. For orientation: IC50 means the point on the concentration scale where inhibition reaches its midpoint. Turning to `O=C1CCCC2CC(c3ccccc3)=C(c3ccccc3)CC12` (centres unmarked) [Compound 56, 6,7-Diphenyl-3,4,4a,5,8,8a-hexahydro-2H-naphthalen-1-one], the EC50 (in the test with MCF-7 cells (setting [3]); in test [1] (setting [5])) was greater than 10 µM each time. Further, the IC50 (in the test on MCF-7 cells (setting [4]); in test [1] (setting [6])) was greater than 10 µM in each case.

Consider `CN(C)CCOc1ccc(C2=C(c3ccc(O)cc3)CCC(C)(CO)C2)cc1` (centres unmarked) [Compound 3, 4-{2-[4-(2-Dimethylamino-ethoxy)-phenyl]-4-hydroxymethyl-4-methyl-cyclohex-1-enyl}-phenol], for which the IC50 in test [2] worked out at 6.1 µM; at hER-β, 5.7 µM.

Regarding `c1ccc(C2=C(c3ccccc3)CC3COCC3C2)cc1` (centres unmarked) [Compound 52], the IC50 in test [2] was greater than 10 µM; on hER-β, 5.7 µM; with MCF-7 cells (setting [4]) it was greater than 10 µM; in test [1] (setting [6]), greater than 10 µM. The EC50 (with MCF-7 cells (setting [3]); in test [1] (setting [5])) was greater than 10 µM in each case.

As to `CCC1C(C)C(CO)CC(c2ccc(OC)cc2)C1c1ccc(O)cc1` (centres unmarked) [Compound 4, 4-[2-Ethyl-4-hydroxymethyl-6-(4-methoxy-phenyl)-3-methyl-cyclohexyl]-phenol], the IC50 is greater than 10 µM in test [2]; 1.6 µM at hER-β; greater than 10 µM with MCF-7 cells (Homo sapiens, MCF7, read-out: MCF7 Antagonist IC50); greater than 10 µM in test [1] (Homo sapiens, Ishikawa, 72 h). Besides, the EC50 is greater than 10 µM with MCF-7 cells (Homo sapiens, MCF7, read-out: MCF7 Agonist EC50) and greater than 10 µM in test [1] (Homo sapiens, Ishikawa, 72 h).

For `OC[C@@H]1CC(c2ccccc2)=C(c2ccccc2)C[C@@H]1CO` [Compound 18], the IC50 was greater than 10 µM in test [2], less than 10 µM at hER-β, greater than 10 µM with MCF-7 cells (setting [4]) and greater than 10 µM in test [1] (setting [6]). Further, the EC50 (in the test on MCF-7 cells (setting [3]); in test [1] (setting [5])) was greater than 10 µM each time.

Consider `CC1(CO)CCC(c2ccc(O)cc2)=C(c2ccc(O)cc2)C1` (centres unmarked) [Compound 27, (1-methyl-3,4-di(4-hydroxy-phenyl)-cyclohex-3-enyl)-methanol], for which the IC50 in test [2] is 0.5 µM; on hER-β, 1.5 µM; in the test with MCF-7 cells (setting [4]) it was greater than 10 µM; in test [1] (setting [6]), greater than 10 µM. In addition, the EC50 (with MCF-7 cells (setting [3]); in test [1] (setting [5])) was greater than 10 µM each time.

For the molecule “4-(4-Hydroxy-phenyl)-[4-(2-morpholin-4-yl-ethoxy)-benzyl]-methyl-cyclohex-3-enecarboxylic acid ethyl ester [Compound 38]”, the IC50 at hER-β is 0.9 µM and 0.5 µM; in the test on MCF-7 cells (antagonist mode, 10 nM 17β-estradiol added, 14C-thymidine incorporation, read-out: MCF7 Antagonist IC50) it was 5 µM; in test [1] (antagonist mode, 10 nM 17β-estradiol added, alkaline phosphatase activity, 3 days), 2.1 µM. For the same molecule, the EC50 in the test on MCF-7 cells (agonist mode, 14C-thymidine incorporation, read-out: MCF7 Agonist EC50) is greater than 10 µM; in test [1] (agonist mode, alkaline phosphatase activity, 3 days), greater than 10 µM.

Regarding `COc1ccc(C2=C(c3ccc(OC)cc3)CC(CO)C(CO)C2)cc1` (centres unmarked) [Compound 26, [6-Hydroxymethyl-3,4-bis-(4-methoxy-phenyl)-cyclohex-3-enyl]-methanol], the IC50 (in test [2]; at hER-β; with MCF-7 cells (setting [4]); in test [1] (setting [6])) was greater than 10 µM each time. The EC50 (in the test with MCF-7 cells (setting [3]); in test [1] (setting [5])) was greater than 10 µM throughout.

Consider `CCC1C(c2ccc(O)cc2)=C(c2ccc(OC)cc2)CC(CO)C1C` (centres unmarked) [Compound 20, 4-[6-Ethyl-4-hydroxymethyl-2-(4-methoxy-phenyl)-5-methyl-cyclohex-1-enyl]-phenol], for which the IC50 in test [2] was 1.85 µM; on hER-β, 0.1 µM; in the test on MCF-7 cells (setting [4]), greater than 10 µM; in test [1] (setting [6]) it was 4.5 µM. Moreover, the values for the EC50 (in the test on MCF-7 cells (setting [3]); in test [1] (setting [5])) were 0.48 µM and 0.7 µM, respectively.

Turning to `CC1(CO)CC=C(c2ccc(O)cc2)CC1` (centres unmarked) [Compound 25, 4-(4-Hydroxymethyl-4-methyl-cyclohex-1-enyl)-phenol], the IC50 was 0.45 µM in test [2], 0.35 µM on hER-β, greater than 10 µM with MCF-7 cells (setting [4]) and 10 µM in test [1] (setting [6]). The EC50 turned out to be 0.2 µM in the test on MCF-7 cells (setting [3]) and 0.1 µM in test [1] (setting [5]).

As to `CC1C(CO)CC=C(c2ccc(O)cc2)C1Cc1ccc(OCCN2CCCCC2)cc1` (centres unmarked) [Compound 74], the IC50 in test [2] was determined as 0.37 µM; at hER-β, 0.38 µM.

Turning to `COc1ccc(C2=C(c3ccc(OC)cc3)C[C@H]3[C@H](CC[C@H]3O)C2)cc1` [Compound 57, 5,6-Bis-(4-methoxy-phenyl)-2,3,3a,4,7,7a-hexahydro-1H-inden-1R-ol], the IC50 in test [2] was greater than 10 µM; at hER-β, 4.9 µM.

Consider `CC1=C(C)CC(C)(CO)C(C)C1` (centres unmarked) [Compound 36], for which the IC50 was greater than 10 µM in test [2] and 6.9 µM on hER-β.
